Laboratory results taken from patent US20140186875A1, “NOVEL OPTICAL LABELING MOLECULES FOR PROTEOMICS AND OTHER BIOLOGICAL ANALYSIS” (Montana State University, priority 2007, published 2014).

Key:
[1] = Optical properties of the dyes (absorbance, emission, extinction coefficient, quantum efficiency); type: physicochemical
[2] = test system: Glutathione S Transferase Omega1—GSTO1; assay: Differential 2D gel analysis of developing rat brain proteins raised on high and low docosahexaenoic acid; type: in vivo; conditions: DHA enriched diet compared with adequate control diet, cytosolic brain fraction
Experimental: Each forebrain was ground using a pestle and mortar, previously brought to liquid nitrogen temperature in a sealed plastic bag with positive dry nitrogen gas pressure. After grinding of the tissue at liquid nitrogen temperature, […] sample of cell lysis buffer containing 20 mM Bicine, 5 mM magnesium acetate, 0.5% Nonidet P-40 and Roche Complete protease inhibitor—mini EDTA free, were added to about a 100 mg sample and mixed well in a 2 ml microcentrifuge tube. Sample fractionation—Crude nuclear fraction (P1) was removed by sedimentation at 1000×g for 10 min at room temp. The supernatant (S1) was removed and was ultra-centrifuged at 100,000×g at 4° C. for an hour in 2 ml polycarbonate tubes in a swinging bucket rotor. The cytosolic fraction S2 was separated. […] Protein concentrations of the cytosolic and membrane organelle fractions were assessed, using the Bio-Rad RCDC assay. […]
1st dimension separation—the sample was spread in a lane of a Bio-Rad Protean isoelectric focusing (IEF) cell tray, an 18 cm 3-10 non-linear IPG strip, or 3-7, or 6-11 IEF strip was put on top of it, covered with mineral oil and allowed to passively re-hydrate for one hr. […] The IPG strips were then transferred to an Ettan IPGphor and covered with mineral oil for monitored iso-electric focusing as follows, 3:30 hrs 300V, 2:30 hrs 1000V, 2:30 hrs 2500V and 7:30 hrs 3500V. […]

CN1/C(=C/C2=C([O-])C(=C/C3=[N+](C)c4ccccc4C3(C)C)/C2=O)C(C)(C)c2ccccc21 [Compound 220]
ε [1]: 280000 1·cm^−1·mol^−1 | λ(abs) [1]: 629 nm | λ(ems) [1]: 640 nm

CN(CCCCCC(=O)O)CCNC(=O)C(CS(=O)(=O)[O-])NC1=C(/C=C2/N(C)c3ccccc3C2(C)C)C(=O)/C1=C\C1=[N+](C)c2ccccc2C1(C)C (centres unmarked) [Compound 222]
QE (QY) [1]: 2.9% | ε [1]: 127300 1·cm^−1·mol^−1 | λ(abs) [1]: 644 nm | λ(ems) [1]: 657 nm

COc1cc(C(C)O)c([N+](=O)[O-])cc1OCCN(C)CCNC(=O)C(CS(=O)(=O)[O-])NC1=C(/C=C2/N(C)c3ccccc3C2(C)C)C(=O)/C1=C\C1=[N+](C)c2ccccc2C1(C)C (centres unmarked) [Compound 227]
QE (QY) [1]: 2.9% | ε [1]: 101400 1·cm^−1·mol^−1 | λ(abs) [1]: 644 nm | λ(ems) [1]: 657 nm

COc1cc(C(C)OC(=O)Oc2ccc([N+](=O)[O-])cc2)c([N+](=O)[O-])cc1OCCNC(=O)C(CS(=O)(=O)[O-])NC1=C(/C=C2/N(C)c3ccccc3C2(C)C)C(=O)/C1=C\C1=[N+](C)c2ccccc2C1(C)C (centres unmarked) [Compound 230]
QE (QY) [1]: 3.3% | ε [1]: 79400 1·cm^−1·mol^−1 | λ(abs) [1]: 646 nm | λ(ems) [1]: 661 nm

CC/C=C\C/C=C\C/C=C\C/C=C\C/C=C\C/C=C\CCC(=O)O [DHA, Docosahexaenoic acid]
down-regulation of spot 2 (GSTO1) [2]: 1.7 | up-regulation of spot 1 (GSTO1) [2]: 2.5
